Measured values reported in patent publication US10662214B2, “Compound of 4′-thionucleoside, as well as preparation method therefor, pharmaceutical composition thereof and application thereof” (Sichuan Kelun-Biotech Biopharmaceutical Co., Ltd., priority 2015, dated 2020).
“Also recorded” adds a separate entry of the source.

Legend:
[1] = test system: gastric cancer cell NCI-N87; test: Subcutaneous xenograft of gastric cancer cell NCI-N87 in nude mice (Experimental example 2); type: in vivo; details: for TGI (%): twice a week for 3 weeks; for Body weight change: 14 days after last administration vs beginning; for Tumor regression, CR (complete tumor regression): animals out of 8
Protocol: (§9) This experimental example was used for the evaluation of the effectiveness of the compounds of the present invention in inhibiting the proliferation of a subcutaneous xenograft of human tumor cells via various routes of administration.
(§10) Gastric cancer cell NCI-N87 and colorectal cancer cell HCT-116 were cultured as a monolayer in vitro, and the culture conditions were RPMI-1640 culture medium supplemented with 10% heat inactivated Fetal Bovine Serum, and incubation in an incubator at 37° C. and 5% CO2. The cells were subcultured by treatment with trypsin-EDTA digestion.
(§11) The tumor cells were respectively inoculated into BALB/c nude mice (SPF grade, female, 16-18 g per mouse, about 6 to 8 weeks old, Beijing Vital River Laboratory Animal Technology Co., Ltd.).
(§12) Each nude mouse was inoculated with about 2.5×10^6 HCT-116 tumor cells or about 3×10^6 NCI-N87 tumor cells (suspended in 0.1 ml PBS) subcutaneously into the underarm of the right flank. After the inoculated tumor reached a size in the range of about 100-200 mm^3, nude mice bearing a tumor that is too small (smaller than 100 mm^3) or too big (bigger than 200 mm^3) were removed from the study, and the remaining ones were randomized into groups.
(§13) Sulfobutyl ether-β-cyclodextrin (SE-β-CD) was formulated with physiological saline to form a 10% solution, which was then filtered through a 0.22 μm sterile filter for later use.
(§14) An appropriate amount of the test compound was weighted, and added in DMSO. The resultant solution was vortexed to uniformity, and the 10% solution of SE-β-CD was added according to the desired concentration. The solution was vortexed to uniformity, and the final concentration of DMSO was adjusted to 5%. A gemcitabine injection (a positive control) was directly diluted to the desired concentration with physiological saline. A 10% solution of SE-β-CD containing 5% DMSO was prepared as a vehicle control.
(§15) Mice bearing a tumor having a volume of about 100-200 mm^3 were selected, and randomized into 5 groups (8 mice per group). The dosing volume was 10 mL/kg, and the administration (intravenous administration (i.v.) or oral administration (p.o.)) was performed twice a week for 3 weeks. The tumor volume and body weight were measured twice a week after the administration, and the mortality of animals was observed every day.
(§16) The diameter of a tumor was measured, and the tumor volume was calculated according to the following formula: V=0.5a×b^2, wherein a and b respectively represent the major and minor diameters of a tumor. The anti-tumor effect was evaluated by the tumor growth inhibition (TGI) (%). TGI (%)=[1−(VT-end−VT-start)/(VC-end−VC-start)]*100%
(§17) The body weight of an animal was measured twice a week.

[2] = Oral toxicity test in mice (administration for 7 days); type: in vivo; details: once per day for 7 days
Protocol: Normal Male and female Kunming mice (SPF grade, obtained from Laboratory Animal Center in Sichuan Academy of Chinese Medicine Science) were randomized by weight into groups. The test compound and vehicle control were formulated according to Experimental example 2. The dosage volume was 10 mL/kg, and the administration was performed by oral gavage, once per day for 7 consecutive days.

[3] = test system: human pancreatic cancer cell BxPC-3; test: Subcutaneous xenograft of human pancreatic cancer cell BxPC-3 in a nude mouse (Experimental example 3); type: in vivo; details: once every 3 days, 4 times
Protocol: According to methods similar to those in sections 1 to 2 in Experimental example 2, pancreatic cancer cell BxPC-3 was cultured as a monolayer in vitro, and inoculated, and the animals were randomized into groups.
An appropriate amount of the test compound was weighted out, and added in DMSO. The 10% solution of SE-β-CD was then added according to the desired concentration, and the final concentration of DMSO was adjusted to 2.5%. A gemcitabine injection (a positive control) was diluted to the desired concentration with physiological saline. A 10% solution of SE-β-CD containing 2.5% DMSO was prepared as a vehicle control.
Mice bearing a tumor having a volume of 100-200 mm^3 were selected, and randomized into 14 groups (7 mice per group). The dosing volume was 20 mL/kg, and the administration (intravenous administration (i.v.)) was performed once every 3 days, for 4 times in total.
(§1) For statistical calculations of the test indexes, please refer to Experimental example 2.

[4] = test system: colorectal cancer cell HCT-15; test: CCK-8 inhibition of proliferation, HCT-15; type: cell-based, human
Protocol: (§2) The tumor cell lines employed in the present experiment were gastric cancer cell NCI-N87 (obtained from Guangzhou Jennio Biological Technology Co., Ltd.), colorectal cancer cell HCT-116 (obtained from Chengdu Center for Safety Evaluation of Drugs), colorectal cancer cell HCT-15 and pancreatic cancer cell BxPC-3 (both obtained from ATCC, US).
(§3) Each of the cell lines is cultured in a corresponding culture medium (RPMI-1640, IMDM and L-15 culture medium (manufacturer: Gibco)) supplemented with 10% heat inactivated Fetal Bovine Serum (manufacturer: Sigma), in an incubator at 37° C. and 5% CO2.
(§4) For each type of tumor cells, a blank group, a vehicle group (containing 1‰ DMSO) and 8 groups with a test compound at concentrations of 5 nM, 10 nM, 50 nM, 100 nM, 500 nM, 1000 nM, 5000 nM, and 10000 nM (with each concentration in triplicate) were set.
(§5) Appropriate amounts of test compounds were weighted, and dissolved in DMSO (cell culture grade, Sigma) to prepare stock solutions of various concentration gradients according to desired concentrations. During incubation, they were diluted by 1000 times as necessary, and incubation solutions with various drug concentrations were prepared (compound stock solution:medium containing 2% FBS=1:1000).
(§6) The experiment was performed according to a CCK-8 method as described below. Cancer cells to be tested were seeded in a 96-well culture plate at a concentration of 5˜10×10^4/mL (100 μL/well), followed by incubation at 37° C. and 5% CO2 for 24 h. The medium was discarded, and incubation solutions with different drug concentrations (200 μL) were respectively added to each well, and the cells were further incubated for 72 h. After the incubation, a CCK-8 solution (20 μL/well) was added to each well to be tested, and the incubation was continued for 4 h in the incubator. OD values at two wavelengths (Detection wavelength: 450 nm, and reference wavelength: 650 nm) were determined on a multifunctional fully-automatic microplate reader.
(§7) The inhibitory rate of tumor cell growth was calculated according to the following formula: Inhibitory rate=[(ODvehicle−ODblank)−(ODdrug−ODblank)]/(ODvehicle−ODblank)*100%
(§8) Based on the inhibitory rate, a concentration-inhibitory rate curve was fit using GraphPad prism 5.0 software, and IC50 was calculated.

[5] = test system: human pancreatic cancer cell Capan-1; test: Subcutaneous xenograft of human pancreatic cancer cell Capan-1 in a nude mouse (Experimental example 5); type: in vivo; details: once every 3 days, 6 times
Protocol: According to methods similar to those in sections 1 to 2 in Experimental example 2, pancreatic cancer cell Capan-1 was cultured as a monolayer in vitro, and inoculated, and the animals were randomized into groups.
Samples were prepared as described in Experimental example 2.
Mice bearing a tumor having a volume of 100-200 mm^3 were selected, and randomized into 7 groups (7 mice per group).
as §1

[6] = test system: pancreatic cancer cell BxPC-3; test: CCK-8 inhibition of proliferation, BxPC-3; type: cell-based, human
Protocol: as §2, §3, §4, §5, §6, §7, §8

[7] = test system: gastric cancer cell NCI-N87; test: CCK-8 inhibition of proliferation, NCI-N87; type: cell-based, human
Protocol: as §2, §3, §4, §5, §6, §7, §8

[8] = test system: human pancreatic cancer cell BxPC-3; test: Subcutaneous xenograft of human pancreatic cancer cell BxPC-3 in a nude mouse (Experimental example 4); type: in vivo
Protocol: According to methods similar to those in sections 1 to 3 in Experimental example 2, pancreatic cancer cell BxPC-3 was cultured as a monolayer in vitro, and inoculated; the animals were randomized into groups; and samples were prepared.
Mice bearing a tumor having a volume of 80-250 mm^3 were selected, and randomized into 6 groups (8 mice per group). The dosing volume was 10 mL/kg.
as §1
The test results obtained by administrating (intravenous administration (i.v.) or oral administration (p.o.)) once a week for 3 weeks are shown in table 7-2.

[9] = test system: colorectal cancer cell HCT-116; test: Subcutaneous xenograft of colorectal cancer cell HCT-116 in nude mice (Experimental example 2); details: for TGI (%): twice a week for 3 weeks; for Body weight change: 14 days after last administration vs beginning; for Tumor regression, CR (complete tumor regression) / Tumor regression, PR (partial tumor regression): animals out of 8
Protocol: as §9, §10, §11, §12, §13, §14, §15, §16, §17

[10] = test system: colorectal cancer cell HCT-116; test: CCK-8 inhibition of proliferation, HCT-116; type: cell-based, human
Protocol: as §2, §3
For each type of tumor cells, a blank group, a vehicle group (containing 1‰ DMSO) and 8 groups with a test compound at concentrations of 5 nM, 10 nM, 50 nM, 100 nM, 500 nM, 1000 nM, 5000 nM, and 10000 nM (with each concentration in triplicate) were set. […]
The experiment was performed according to a CCK-8 method as described below. […] OD values at two wavelengths (Detection wavelength: 450 nm, and reference wavelength: 650 nm) were determined on a multifunctional fully-automatic microplate reader.
as §7, §8

## CC(C)OC(=O)[C@H](C)N[P@](=O)(OC[C@H]1S[C@@H](n2ccc(N)nc2=O)[C@@H](F)[C@@H]1O)Oc1ccccc1 [Compound C8, (S)-isopropyl 2-(((S)-(((2R,3S,4S,5R)-5-(4-amino-2-oxopyrimidin-1(2H)-yl)-4-fluoro-3-hydroxytetrahydrothiophen-2-yl)methoxy)(phenoxy)phosphoryl)amino)propanoate]
[1]; 190 μmol/kg i.v.
  TGI (%): 109%
  Body weight change: +8.1%
  Tumor regression, CR (complete tumor regression): 8/8 CR
[1]; 190 μmol/kg p.o.
  TGI (%): 110%
  Body weight change: +8.1%
  Tumor regression, CR (complete tumor regression): 8/8 CR
[2]; oral gavage
  dosage at which death of animals occurred: ~115 µmol/kg
[2]; ~77 μmol/kg oral gavage
  Results: mortality (3 Male + 3 Female): survived
[2]; ~6 mg/kg (~12 μmol/kg) oral gavage
  Results: clinical symptoms (3 Male + 3 Female): No abnormal symptoms
[2]; ~20 mg/kg (~38 μmol/kg) oral gavage
  Results: clinical symptoms (3 Male + 3 Female): No abnormal symptoms
[3]; 0.04 mmol/kg i.v.
  TGI (%): 26.9%
[3]; 0.12 mmol/kg i.v.
  TGI (%): 74.9%
[3]; 0.24 mmol/kg i.v.
  TGI (%): 82.9%
[4]; FIG. 1: 5-10000 nM
  inhibitory effect on colorectal cancer cell HCT-15 (in words): potent inhibitory effects; also recorded: excellent inhibitory effects
[4]; Homo sapiens, HCT-15, CCK-8, 72 h incubation
  IC50: 1.96 µM
[5]; 0.02 mmol/kg p.o.
  TGI (%): 25.6%
[5]; 0.06 mmol/kg i.v.
  TGI (%): 81.8%
[5]; 0.06 mmol/kg p.o.
  TGI (%): 79.1%
[5]; 0.19 mmol/kg p.o.
  TGI (%): 138.5%
[6]; FIG. 1: 5-10000 nM
  inhibitory effect on pancreatic cancer cell BxPC-3 (in words): potent inhibitory effects; also recorded: excellent inhibitory effects
[6]; Homo sapiens, BXPC-3, CCK-8, 72 h incubation
  IC50: 0.705 µM
[7]; FIG. 1: 5-10000 nM
  inhibitory effect on gastric cancer cell NCI-N87 (in words): potent inhibitory effects; also recorded: excellent inhibitory effects
[7]; Homo sapiens, NCI-N87, CCK-8, 72 h incubation
  IC50: 0.483 µM
[8]; 0.06 mmol/kg p.o., twice a week for 3 weeks
  TGI (%): 47.7%
[8]; 0.12 mmol/kg p.o., twice a week for 3 weeks
  TGI (%): 53.2%
[8]; 0.23 mmol/kg p.o., once a week for 3 weeks
  TGI (%): 51.0%
[9]; 190 μmol/kg i.v.
  Mortality: 0
  TGI (%): 111%
  Body weight change: +7.4%
  Tumor regression, CR (complete tumor regression): 1/8 CR,
  Tumor regression, PR (partial tumor regression): 7/8 PR
[9]; 190 μmol/kg p.o.
  Mortality: 0
  TGI (%): 113%
  Body weight change: +8.9%
  Tumor regression, CR (complete tumor regression): 1/8 CR,
  Tumor regression, PR (partial tumor regression): 7/8 PR
[10]; FIG. 1: 5-10000 nM
  inhibitory effect on colorectal cancer cell HCT-116 (in words): potent inhibitory effects; also recorded: excellent inhibitory effects
[10]; Homo sapiens, HCT-116, CCK-8, 72 h incubation
  IC50: 0.485 µM
